According to US20110183946A1, “Complexes Comprising alpha2-Adrenergic Receptor Agonists and Methods of Providing Neuroprotection or Treating or Inhibiting Progression of Glaucoma” (priority 2007, published 2011):
Converted amounts (≈) assume the structure as drawn. Where two headings read alike, the source gives them in different places. Each block holds one compound with its values, some of them ahead of it.

What was measured:
[1] = Solubility of various brimonidine complexes in water at the resulting pH; type: physicochemical; details: for pH: resulting pH of the aqueous solubility sample
Method: In this experiment, various complexes comprising Brimonidine and counterions of one of the following acids were prepared: pamoic acid, capric acid, sebacic acid, hippuric acid, naproxen, 1-hydroxy-2-naphthoic acid, palmitic acid, and stearic acid. Variations of the procedure described in the following disclosure may be made within the skill of a person of ordinary skill in the art without departing from the scope of the present invention. Brimonidine free base in a preselected solvent was heated to about 60-70° C. The organic acid in another portion of the solvent was added into the heated mixture or was included in the original mixture before heating. The heating of the combined mixture was continued for an additional period, which was not critical. In certain embodiments, an antisolvent was added to the combined mixture, preferably at a lower temperature, to effect a precipitation of the complex of brimonidine and the counterion. It may be advantageous to remove a portion of the solvent and antisolvent to assist the precipitation. In certain other embodiments, the heated combined mixture was cooled down to a lower temperature, such as room temperature (or below) to effect the precipitation of the complex of brimonidine and the counterion. The precipitate was then filtered and dried to yield the final complex.

physchem = assay: physchem
Method: Brimonidine and pamoic acid, at a molar ratio of 1:1, were mixed and dispersed in N-methylpyrrolidone (“NMP”). The solution of brimonidine and pamoic acid in NMP was heated while stirring to dissolve brimonidine (the final temperature, typically less than 70° C., was chosen so as not to lose significant amount of solvent). […] The precipitation was allow to proceed; for example, for several hours or overnight. […] Other solvents, known to people skilled in the art, may be used for a compound that provides the counterion to the α2-adrenergic agonist, as appropriate.

[2] = see US Patent Application Publication 2005/0244463 A1; cited from earlier work

- pH [1]: 6.8
Compound: Brc1c(NC2=NCCN2)ccc2nccnc12.O=C(O)c1ccc2ccccc2c1O [1-hydroxy-2-naphtoate]

- solubility at 11 days (physchem; water, thermodynamic from solid): 215 µg/mL (≈ 736 µM)
- solubility ([1]; in water at the resulting pH (pH in column 1 of the same row)): 48 to 200 µg/mL (≈ 164 to 685 µM)
- pH [1]: 8.1-8.9
Compound: Brc1c(NC2=NCCN2)ccc2nccnc12 [brimonidine free base, 5-bromo-N-(2-imidazolin-2-yl)-6-quinoxalinamine]

- Solubility in water (physchem): 207 µg/mL
- pH [1]: 7.2-7.5
Compound: Brc1c(NC2=NCCN2)ccc2nccnc12.O=C(O)c1cc2ccccc2c(Cc2c(O)c(C(=O)O)cc3ccccc23)c1O [brimonidine pamoate]

Compound: brimonidine tartrate
- Solubility in water (physchem; water, after 11 days on a twist shaker): 41588 µg/mL
- Solubility in water [2]: about 34 mg/ml

- pH [1]: 5.3-5.4
Compound: naphthoate
